From US20240229043A1, “Methods and Compositions for Treating, Ameliorating, and/or Preventing Chronic Kidney Disease (CKD) and Complications thereof by Regulating DPEP1, CASP9, ACSS2 and/or FASN” (THE TRUSTEES OF THE UNIVERSITY OF PENNSYLVANIA, priority 2022, published 2024)
Peptide text beside a SMILES is read from it. * marks the point of attachment. Cbz = O=C(OCc1ccccc1)*; CH2F = FC*

Columns and labels:
[1] = system: Rat epithelial cells (NRK-52E); assay: Cisplatin-induced LDH release in siControl and siChmp1a transfected cells pretreated with cell death inhibitors; format: cell-based; details: siControl and siChmp1a cells pretreated with inhibitor 18 h, then 20 μM cisplatin 24 h
Description: Rat epithelial cells (NRK-52E; ATCC (CRL-1571)) were cultured in DMEM with 5% fetal bovine serum (FBS). Dpep1 and Chmp1a siRNA were purchased from Dharmacon. Dpep1-overexpressing vector pCMV6-Entry was purchased from OriGene Technologies, Inc. Transfection of gene-targeting siRNA, negative control siRNA, and overexpressing plasmid were performed using Lipofectamine 3000.
For transfection, cells were seeded in six-well plates, grown overnight until 60-70% confluency, and then transfected with 50 nM (final concentration) siRNA or 5 μg Dpep1-overexpression plasmids. Transfection efficiency was determined under a fluorescence microscope by the presence of Cy3 transfection control. […] After 24 h of Dpep1 siRNA transfection, cells were treated with cell death inducers for 18-20 h, respectively: 5 μM Nigericin (Sigma #N7143); 5 μM CPT (Cayman #11694); 5 μM erastin (Cayman #17754), 20 μM FIN56 (Cayman #25180), 5 μM FINO2 (Cayman #25096) and 5 μM RSL3 (Cayman #19288).
(§1) Mouse primary tubular epithelial cells from wild-type, mutant mice or NRK52E cells were plated in 96-well plate. Transfection of NRK52E cells with siRNA was carried out as described above. […] Cells were harvested and stained with trypan blue (Thermo Fisher #T10282) to visualize dead cells. Cell counts were analyzed in Countess Auto Counter (Invitrogen, C10227). LDH release was quantified using CytoTox 96 Non-Radioactive Cytotoxicity Assay (Promega #G1780). Medium was collected in triplicates, spun down, and incubated in a 96-well plate with the CytoTox reagent for 20-30 min. After adding the stop solution, the absorbance signal was measured at 490 nm in a plate reader. The ratio between dead cell and live cell was calculated through the measurement using MultiTox-Fluor Multiplex Cytotoxicity Assay (Promega #9201). Cells were incubated in assay buffer containing live cell substrate GF-AFC and dead cell substrate bis-AAF-R110 for 30 min at 37° C. The plate fluorescence was measured using a plate reader as following: viability: excitation ˜400 nm; emission ˜505 nm. cytotoxicity: excitation ˜485 nm; emission ˜520 nm.

primary TECs = assay: Cisplatin-treated primary kidney tubule cells from wild-type and Chmp1a+/- mice; format: cell-based
Description: For primary culture of renal tubule cells, kidneys were collected from 2- to 4-week-old male mice. Cells were isolated by 2 mg/ml collagenase I (Gibco #17018-029) digestion for 30 min at 37° C. with gentle stirring and filtered through a 100-μm mesh. The cell suspension was cultured in RPMI 1640 (Corning #10-040-CM) supplement with 10% FBS (Atlanta Biologicals #S11950), 20 ng/ml EGF (Peprotech #AF-100-15), 1×ITS (Gibco #51500-056), and 1% penicillin-streptomycin (Corning #30-002-CI) at 5% CO2 and 37° C.
Primary cultured renal tubule cells or NRK52E cells were incubated with 1 μM transferrin (Thermo Fisher #T13342) for 4 h, or 5 μM mitoSOX (ThermoFisher #M36008) for 10 min, or 2 μM BODIPY™ 581/591 C11 (Thermo Fisher #D3861) for 0.5 h, or 20 ng/ml dextran conjugated to 488 (Thermo Fisher #D22910) for 2 h, at 5% CO2 and 37° C., respectively. After washing with PBS, cells were imaged directly under the confocal or regular fluorescence microscope.
as §1

ferroptosis = assay: Cisplatin-induced injury in Chmp1a+/- mice injected with liproxstatin; format: in vivo; details: for protection from cisplatin-induced injury / kidney disease: Chmp1a+/- (heterozygous) mice
Description: Eight- to ten-week-old male mice were used in this study. All mice were maintained under SPF conditions with ambient temperature 20-22, humidity 50-70%, and a 12/12 h light/dark cycle. All animal experiments were reviewed and approved and were performed in accordance with the institutional guidelines. Dpep1 mutant mice were generated by co-injection of Cas9 mRNA (100 ng/μl; ThermoFisher, A29378), sgRNA (50 ng/μl) in CRISPR Cas9 Mouse Targeting Core of University of Pennsylvania. Two sgRNAs were generated with Guide-it™ sgRNA In Vitro Transcription Kit (Takara #632635). Chmp1a mutant mice were imported from Mutant Mouse Regional Resource Center of UC Davis (#031089-UCD). For FA-induced nephropathy mouse models, 8-week-old male wild-type and Dpep1^+/− or Chmp1a^+/− mice were injected with FA (250 or 200 mg/kg, dissolved in 300 mM sodium bicarbonate) intraperitoneally and euthanized on day 7. […] Mice were euthanized on day 3. For the UUO model, mice underwent ligation of the left ureter and were euthanized on day 7, and sham-operated mice were used as controls.
Serum creatinine was measured by Creatinine Enzymatic and Creatinine Standard (DIAZYME #DZ072B-KY1). Serum BUN was measured by Infinity™ Urea Liquid Stable Reagent (Pointe Scientific #B7552150). Both measurements were performed according to the manufacturers' instructions.
RNA was isolated from mouse kidneys or cultured cells using Trizol reagent (Invitrogen) and was reverse transcribed into cDNA using cDNA Archival Kit (Life Technologies). Real-time RT-PCR was performed using SYBR Green Master Mix (Applied Biosystems).

CASP9 = target: T1, CASP9 (Mus musculus, UniProt Q8C3Q9); assay: Cisplatin model of kidney injury, mice treated with CASP9 inhibitor; format: in vivo
T1 construct: from tissue; host or cells: living mice; read-outs in serum and kidney
T1 sequence (Q8C3Q9 whole entry): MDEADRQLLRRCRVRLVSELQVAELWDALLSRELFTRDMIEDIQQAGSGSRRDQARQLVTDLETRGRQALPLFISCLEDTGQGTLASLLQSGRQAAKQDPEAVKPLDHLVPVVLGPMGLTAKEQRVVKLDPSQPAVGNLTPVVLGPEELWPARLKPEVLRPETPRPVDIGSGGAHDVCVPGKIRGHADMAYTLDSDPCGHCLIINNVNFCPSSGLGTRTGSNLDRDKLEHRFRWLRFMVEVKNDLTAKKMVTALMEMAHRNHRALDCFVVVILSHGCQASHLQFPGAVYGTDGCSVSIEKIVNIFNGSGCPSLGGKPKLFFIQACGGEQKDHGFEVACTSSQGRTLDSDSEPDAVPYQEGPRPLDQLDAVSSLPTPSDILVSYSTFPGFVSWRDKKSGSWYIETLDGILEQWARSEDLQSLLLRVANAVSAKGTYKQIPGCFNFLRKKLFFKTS
T1 sequence (O88879 whole entry partner): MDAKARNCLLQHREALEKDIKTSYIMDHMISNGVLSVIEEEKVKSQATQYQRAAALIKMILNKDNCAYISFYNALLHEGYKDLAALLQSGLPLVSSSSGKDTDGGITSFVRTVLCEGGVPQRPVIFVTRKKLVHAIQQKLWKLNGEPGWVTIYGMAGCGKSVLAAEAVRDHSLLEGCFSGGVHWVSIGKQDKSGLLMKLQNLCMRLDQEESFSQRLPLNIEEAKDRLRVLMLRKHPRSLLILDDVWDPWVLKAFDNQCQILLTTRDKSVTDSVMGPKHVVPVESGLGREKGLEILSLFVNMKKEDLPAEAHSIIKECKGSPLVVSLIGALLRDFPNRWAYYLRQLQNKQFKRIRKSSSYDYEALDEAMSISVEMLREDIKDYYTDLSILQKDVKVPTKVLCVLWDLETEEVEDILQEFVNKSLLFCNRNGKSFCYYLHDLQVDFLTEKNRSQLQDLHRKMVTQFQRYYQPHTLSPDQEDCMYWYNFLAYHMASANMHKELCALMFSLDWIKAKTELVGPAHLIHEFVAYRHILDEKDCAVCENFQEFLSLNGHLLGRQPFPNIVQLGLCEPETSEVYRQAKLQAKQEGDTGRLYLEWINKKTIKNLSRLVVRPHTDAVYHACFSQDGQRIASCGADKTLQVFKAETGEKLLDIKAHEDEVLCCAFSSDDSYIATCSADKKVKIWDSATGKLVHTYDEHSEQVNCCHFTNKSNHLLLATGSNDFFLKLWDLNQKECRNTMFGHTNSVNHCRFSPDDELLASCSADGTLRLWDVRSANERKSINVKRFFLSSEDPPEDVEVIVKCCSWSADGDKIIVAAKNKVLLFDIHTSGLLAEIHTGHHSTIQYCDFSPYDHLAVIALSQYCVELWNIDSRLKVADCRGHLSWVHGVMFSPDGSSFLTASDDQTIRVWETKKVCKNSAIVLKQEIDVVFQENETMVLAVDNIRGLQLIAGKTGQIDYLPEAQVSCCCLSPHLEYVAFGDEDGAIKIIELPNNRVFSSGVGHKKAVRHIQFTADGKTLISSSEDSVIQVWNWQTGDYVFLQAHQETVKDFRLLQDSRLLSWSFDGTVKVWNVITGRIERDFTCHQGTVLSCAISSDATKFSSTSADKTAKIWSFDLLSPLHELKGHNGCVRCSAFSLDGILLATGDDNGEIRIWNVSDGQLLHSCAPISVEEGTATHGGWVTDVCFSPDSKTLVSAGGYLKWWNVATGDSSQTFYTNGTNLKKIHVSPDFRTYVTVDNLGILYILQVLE
T1 sequence (P62897 2-105 partner limits assumed): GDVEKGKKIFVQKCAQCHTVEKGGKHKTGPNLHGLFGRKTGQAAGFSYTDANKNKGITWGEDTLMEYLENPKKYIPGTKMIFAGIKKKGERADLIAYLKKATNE
Description: Casp9 HZ mice were obtained. Mice were injected intraperitoneally with FA (#10752485 ACROS Organics, 250 mg/kg, dissolved in […] sodium bicarbonate) or sodium bicarbonate (#56014, Sigma-Aldrich) and euthanized on day 7. Mice were euthanized on day 7 after left ureteral ligation or sham surgery. […] Mice were euthanized 18 weeks after uninephrectomy and following low-dose STZ (50 mg/kg, i.p. for 5 days) (streptozotocin, Santa Cruz Biotechnology, #U-9889) or PBS injection. Aging mice were euthanized at 2 years of age. Transgenic mice (Nphs1-rtTA/TRE-APOL1-G2) were placed on a doxycycline diet to induce transgene expression and euthanized.
RNA was isolated from kidney tissue or cells using TRIzol (Invitrogen, #15596018). RNA was reverse-transcribed using the High-Capacity cDNA Reverse Transcription Kit (Applied Biosystems, #4368813), and qRT-PCR was run in the ViiA 7 System (Life Technologies) instrument using SYBR Green Master Mix (Applied Biosystems, #4367659) and gene-specific primers. For quantitative analysis, samples were normalized to glyceraldehyde-3-phosphate dehydrogenase (GAPDH) with the ΔΔCt method.
BUN was determined by a TRACE DMA Urea kit (Thermo Electron Corporation, #TR12003), according to the manufacturer's instructions. Electrolytes (Na, K, and Cl) and hemoglobin were measured with the iSTAT Portable Clinical Analyzer using i-STAT CHEM8+ cartridge (Abaxis, #10023291). Kidney tissue was stained with hematoxylin and eosin to investigate renal injury. The degree of tubulointerstitial damage was scored semiquantitatively on a 0 to 5+ scale, according to the percentage of the area affected by hydropic degeneration, hyaline casts, cytoplasmic vacuolization, loss of the brush border, and tubular lumen dilation (0=normal, 1=<10%, 2=10 to 25%, 3=26 to 50%, 4=51 to 75%, and 5=>75%). Sirius red staining was performed according to the manufacturer's protocol (Polysciences, #24901) to determine the degree of fibrosis. For each analysis, five to eight fields were randomly selected and quantified using the Fiji software. Each dot represents the mean score of a single animal.
Several small molecular inhibitors that target CASP9 have been developed with good specificity. […] Serum creatinine and BUN levels were lower, and renal expression of Havcr1 was dampened in Z-LEHD-FMK-treated mice.

FASN = FASN (Mus musculus, UniProt P19096); details: primary TECs; various concentrations for 48 h
Sequence of FASN (P19096 whole entry): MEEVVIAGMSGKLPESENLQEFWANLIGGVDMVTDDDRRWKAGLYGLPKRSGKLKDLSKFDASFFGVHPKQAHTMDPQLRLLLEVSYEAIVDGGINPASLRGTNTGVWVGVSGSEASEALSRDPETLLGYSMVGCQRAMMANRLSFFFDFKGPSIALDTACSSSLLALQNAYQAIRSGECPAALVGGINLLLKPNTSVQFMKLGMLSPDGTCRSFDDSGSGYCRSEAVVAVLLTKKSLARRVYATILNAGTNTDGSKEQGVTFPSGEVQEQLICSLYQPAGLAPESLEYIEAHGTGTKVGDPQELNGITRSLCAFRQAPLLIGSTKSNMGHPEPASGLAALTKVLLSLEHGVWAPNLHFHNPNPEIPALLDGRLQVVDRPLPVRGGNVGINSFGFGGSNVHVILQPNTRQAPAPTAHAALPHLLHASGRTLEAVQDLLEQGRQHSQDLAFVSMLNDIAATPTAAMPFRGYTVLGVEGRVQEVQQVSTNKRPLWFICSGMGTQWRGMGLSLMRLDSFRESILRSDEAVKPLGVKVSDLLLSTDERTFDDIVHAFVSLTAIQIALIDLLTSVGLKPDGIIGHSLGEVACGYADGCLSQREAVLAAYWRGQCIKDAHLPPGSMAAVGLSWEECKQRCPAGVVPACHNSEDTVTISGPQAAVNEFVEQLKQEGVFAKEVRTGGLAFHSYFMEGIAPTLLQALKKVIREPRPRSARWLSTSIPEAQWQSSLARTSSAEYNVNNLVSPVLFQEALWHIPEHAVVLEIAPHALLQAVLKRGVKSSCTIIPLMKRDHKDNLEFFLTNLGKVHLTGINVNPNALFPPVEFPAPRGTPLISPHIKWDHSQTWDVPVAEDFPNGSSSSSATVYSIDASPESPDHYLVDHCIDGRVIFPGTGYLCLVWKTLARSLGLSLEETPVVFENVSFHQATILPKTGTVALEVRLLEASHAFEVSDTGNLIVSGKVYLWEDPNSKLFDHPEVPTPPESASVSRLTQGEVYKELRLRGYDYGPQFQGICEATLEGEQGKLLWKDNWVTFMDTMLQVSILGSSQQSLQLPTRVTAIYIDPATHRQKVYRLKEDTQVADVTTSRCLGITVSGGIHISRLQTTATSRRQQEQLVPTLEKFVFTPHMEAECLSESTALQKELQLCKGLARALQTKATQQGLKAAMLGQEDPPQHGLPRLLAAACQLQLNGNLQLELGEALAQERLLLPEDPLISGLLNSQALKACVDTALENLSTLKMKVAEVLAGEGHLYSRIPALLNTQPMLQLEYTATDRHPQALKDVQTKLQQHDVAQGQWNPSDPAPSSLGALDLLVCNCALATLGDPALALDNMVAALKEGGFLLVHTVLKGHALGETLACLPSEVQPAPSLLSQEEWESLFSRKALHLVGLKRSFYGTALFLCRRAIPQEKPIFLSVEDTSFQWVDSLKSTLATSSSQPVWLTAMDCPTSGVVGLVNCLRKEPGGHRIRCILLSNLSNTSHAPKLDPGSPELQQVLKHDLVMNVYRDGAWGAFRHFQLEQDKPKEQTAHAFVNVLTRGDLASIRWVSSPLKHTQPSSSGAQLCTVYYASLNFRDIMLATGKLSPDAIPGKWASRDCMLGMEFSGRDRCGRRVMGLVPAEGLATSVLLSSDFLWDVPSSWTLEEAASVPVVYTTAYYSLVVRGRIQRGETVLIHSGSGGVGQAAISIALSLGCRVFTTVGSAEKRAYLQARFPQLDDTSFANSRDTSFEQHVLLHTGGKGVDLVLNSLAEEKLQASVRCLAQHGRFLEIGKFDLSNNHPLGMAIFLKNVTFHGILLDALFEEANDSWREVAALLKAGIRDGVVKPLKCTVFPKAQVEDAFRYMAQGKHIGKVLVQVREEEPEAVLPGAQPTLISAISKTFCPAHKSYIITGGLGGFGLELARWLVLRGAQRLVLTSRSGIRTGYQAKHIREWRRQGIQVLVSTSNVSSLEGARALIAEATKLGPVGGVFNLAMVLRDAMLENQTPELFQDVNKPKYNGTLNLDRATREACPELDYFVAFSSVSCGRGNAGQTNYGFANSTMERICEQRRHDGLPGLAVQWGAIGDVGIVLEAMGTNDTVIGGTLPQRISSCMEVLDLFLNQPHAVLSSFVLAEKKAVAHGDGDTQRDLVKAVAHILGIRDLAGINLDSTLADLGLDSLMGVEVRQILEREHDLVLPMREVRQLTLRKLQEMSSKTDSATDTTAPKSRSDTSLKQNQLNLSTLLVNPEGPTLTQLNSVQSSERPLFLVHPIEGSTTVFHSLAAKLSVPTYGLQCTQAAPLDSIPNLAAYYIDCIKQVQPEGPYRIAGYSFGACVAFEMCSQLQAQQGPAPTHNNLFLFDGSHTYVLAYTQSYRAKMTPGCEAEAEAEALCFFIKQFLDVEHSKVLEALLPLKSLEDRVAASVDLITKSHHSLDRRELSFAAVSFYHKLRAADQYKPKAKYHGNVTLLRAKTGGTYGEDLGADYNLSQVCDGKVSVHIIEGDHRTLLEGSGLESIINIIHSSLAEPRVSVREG

[2] = cisplatin-injected mice, inhibitor daily starting 1 day before cisplatin, vs vehicle

SMILES: CCO[C@@H]1OC(=O)C[C@@H]1NC(=O)[C@@H]1CCCN1C(=O)[C@@H](NC(=O)c1ccc(N)c(Cl)c1)C(C)(C)C [Vx765]
- LDH release [1]: No change

SMILES: Clc1cccc(CN=C2Nc3ccccc3NC23CCNCC3)c1 [liproxstatin1]
- cisplatin-induced cytotoxicity (primary TECs; Chmp1a+/- primary TECs, compared with inhibitors of necroptosis, apoptosis, pyroptosis): alleviated
- lipid peroxidation (C11 BODIPY 581/591) induced by cisplatin (primary TECs; primary TECs from wild-type or Chmp1a+/- mice): lower
- LDH release [1]: reduced this effect
- protection from cisplatin-induced injury / kidney disease (ferroptosis; listed as Liproxstatin1): protected
- protection from cisplatin-induced injury / kidney disease (ferroptosis; listed as liproxstatin): marked protection
- Kidney injury marker Kim1 (ferroptosis; Chmp1a+/- mice, cisplatin): lower
- serum creatinine level (ferroptosis; Chmp1a+/- mice, cisplatin): reduced

SMILES: COC(=O)C[C@H](NC(=O)[C@H](C)NC(=O)[C@@H](NC(=O)OCc1ccccc1)C(C)C)C(=O)CF [Z-VAD-FMK] (Cbz-Val-Ala-Asp(OMe)-CH2F)
- LDH release [1]: No change

SMILES: COC(=O)CC[C@H](NC(=O)[C@H](CC(C)C)NC(=O)OCc1ccccc1)C(=O)N[C@@H](Cc1cnc[nH]1)C(=O)N[C@@H](CC(=O)OC)C(=O)CF [Z-LEHD-FMK] (Cbz-LE(OMe)HD(OMe)-CH2F)
- inflammatory cytokines (Il1b, Csf2, Tnfa, and Cxcl10) and Icam1 expression (CASP9; after cisplatin injury, qRT-PCR, kidney): lower
- kidney function and kidney damage (CASP9; cisplatin-injected mice): improved kidney function and lessened kidney damage
- BUN level (CASP9; [2]): lower
- serum creatinine level (CASP9; [2]): lower
- renal expression of Havcr1 (CASP9; cisplatin-injected mice, vs vehicle): dampened

SMILES: COCc1[nH]c(C(F)(F)F)nc1-c1cc(C(=O)N2CC(c3ccc(C#N)cc3)C2)c(C)cc1C [TVB-3664]
- cell death (cell viability) (FASN): did not increase cell death

SMILES: CN1C(=O)C(Cc2c[nH]c3ccccc23)NC1=S (stereo not shown) [Nec-1, necrostatin-1]
- LDH release [1]: No change
